Earlier results, collected in article PMC9811213, “Glutamine deamidation does not increase the immunogenicity of C-peptide in people with type 1 diabetes” (Journal of Translational Autoimmunity, 2022).

How the values were obtained:
HLA-DQ8 = details: cited from earlier work
Source text: (§1) Beta cells are believed to be particularly susceptible to endoplasmic reticulum (ER) stress. […] Van Lummel et al. tested an array of candidate epitopes derived from beta cell antigens.

HLA-DQ8trans = details: cited from earlier work
Source text: as §1

[1] = system: PBMC from subjects with recent onset T1D; details: samples from subjects with recent onset T1D; cited from earlier work
Source text: as §1

| Sequence | Binding to HLA-DQ8 compared with the native sequence (EAEDLQVGQVELG) (HLA-DQ8) | Binding to HLA-DQ8trans compared with the native sequence (EAEDLQVGQVELG) (HLA-DQ8trans) | Frequency of peripheral blood responses compared with native PI30-43 peptide (TRREAEDLQVGQVE) [1] |
| --- | --- | --- | --- |
| EAEDLEVGEVELG [deamidated PI33-45, deamidated PI33-45 (…) tested by van Lummel et al] | bound more strongly | bound more strongly |  |
| TRREAEDLEVGEVE [deamidated B-chain-C-peptide, deamidated B-chain-C-peptide PI30-43 (…) tested by van Lummel et al] |  |  | more frequently detected |
